Measured values taken from patent publication US10590078B2, “Sodium channel blockers” (Daewoong Pharmaceutical Co., Ltd., priority 2015, dated 2020).

Biological target: human sodium ion channel 1.7 (hNav1.7) (Homo sapiens, UniProt Q15858)
Assay: Blocking effect against sodium ion channel Nav1.7, IonFlux16 auto patch clamp in hNav1.7 HEK293 cells
Type: cell-based
Details: hNav1.7 HEK293 cells; inhibition of peak current after 50 seconds treatment; eight concentrations; read-out: IC50

human sodium ion channel 1.7 (hNav1.7), sequence (Q15858 whole entry): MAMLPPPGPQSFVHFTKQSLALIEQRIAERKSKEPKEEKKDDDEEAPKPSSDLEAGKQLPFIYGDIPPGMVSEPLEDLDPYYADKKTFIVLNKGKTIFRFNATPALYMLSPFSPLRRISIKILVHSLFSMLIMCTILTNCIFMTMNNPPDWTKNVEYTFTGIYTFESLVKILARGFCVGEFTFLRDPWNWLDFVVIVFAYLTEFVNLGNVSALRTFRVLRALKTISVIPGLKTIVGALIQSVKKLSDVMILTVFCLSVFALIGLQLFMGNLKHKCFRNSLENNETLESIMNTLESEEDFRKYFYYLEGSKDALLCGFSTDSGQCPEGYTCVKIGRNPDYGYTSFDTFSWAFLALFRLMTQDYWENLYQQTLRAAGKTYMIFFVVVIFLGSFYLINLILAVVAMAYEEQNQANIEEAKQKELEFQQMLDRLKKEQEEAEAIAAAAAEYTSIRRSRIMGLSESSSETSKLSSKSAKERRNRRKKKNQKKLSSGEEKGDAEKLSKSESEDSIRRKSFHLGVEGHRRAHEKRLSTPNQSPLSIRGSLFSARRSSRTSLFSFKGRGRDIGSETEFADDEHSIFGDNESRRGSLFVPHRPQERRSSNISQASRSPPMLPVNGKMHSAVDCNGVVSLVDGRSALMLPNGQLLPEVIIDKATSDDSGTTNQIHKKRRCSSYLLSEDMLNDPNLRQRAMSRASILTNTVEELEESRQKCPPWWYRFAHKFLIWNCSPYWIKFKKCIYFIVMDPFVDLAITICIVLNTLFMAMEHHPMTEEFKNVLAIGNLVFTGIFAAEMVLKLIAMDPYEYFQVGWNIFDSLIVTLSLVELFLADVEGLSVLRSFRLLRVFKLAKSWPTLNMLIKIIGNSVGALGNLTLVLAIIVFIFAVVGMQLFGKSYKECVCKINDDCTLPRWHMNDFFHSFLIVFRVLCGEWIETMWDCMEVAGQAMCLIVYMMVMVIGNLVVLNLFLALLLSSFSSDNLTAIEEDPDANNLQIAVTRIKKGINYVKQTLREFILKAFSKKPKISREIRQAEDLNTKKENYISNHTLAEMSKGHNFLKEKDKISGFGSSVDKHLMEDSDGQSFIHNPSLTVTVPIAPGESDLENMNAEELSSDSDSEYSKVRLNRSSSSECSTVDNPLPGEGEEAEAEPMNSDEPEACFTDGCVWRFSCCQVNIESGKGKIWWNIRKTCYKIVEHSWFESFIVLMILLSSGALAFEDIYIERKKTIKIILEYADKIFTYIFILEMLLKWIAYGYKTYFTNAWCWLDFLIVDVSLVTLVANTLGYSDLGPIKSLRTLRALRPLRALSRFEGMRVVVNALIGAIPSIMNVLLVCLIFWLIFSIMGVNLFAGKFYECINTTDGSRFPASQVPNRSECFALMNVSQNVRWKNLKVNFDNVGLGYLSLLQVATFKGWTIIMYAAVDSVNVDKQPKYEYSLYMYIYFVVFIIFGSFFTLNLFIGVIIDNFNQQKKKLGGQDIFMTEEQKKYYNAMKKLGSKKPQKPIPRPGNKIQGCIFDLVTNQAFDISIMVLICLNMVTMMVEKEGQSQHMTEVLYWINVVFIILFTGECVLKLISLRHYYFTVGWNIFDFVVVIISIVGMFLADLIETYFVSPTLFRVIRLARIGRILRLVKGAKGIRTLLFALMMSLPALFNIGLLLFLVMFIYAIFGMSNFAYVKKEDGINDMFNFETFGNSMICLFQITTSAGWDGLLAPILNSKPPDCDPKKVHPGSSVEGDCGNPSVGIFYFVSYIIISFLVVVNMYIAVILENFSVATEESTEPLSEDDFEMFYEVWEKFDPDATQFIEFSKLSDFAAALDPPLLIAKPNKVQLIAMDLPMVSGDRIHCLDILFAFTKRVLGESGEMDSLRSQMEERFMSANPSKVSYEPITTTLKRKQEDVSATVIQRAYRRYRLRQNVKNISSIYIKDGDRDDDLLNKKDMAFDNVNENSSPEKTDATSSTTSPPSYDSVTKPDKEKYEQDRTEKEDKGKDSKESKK

Row | IC50 | Compound
1 | 180 nM | Cc1cc(F)ccc1-c1cn(-c2cc(F)c(C(=O)NS(C)(=O)=O)cc2Cl)c2ncc(F)cc12 [Example 212, 5-chloro-2-fluoro-4-(5-fluoro-3-(4-fluoro-2-methylphenyl)-1H-pyrrolo[2,3-b]pyridin-1-yl)-N-(methylsulfonyl)benzamide]
2 | 720 nM | CS(=O)(=O)NC(=O)c1cc(Cl)c(-n2cc(-c3ccccc3F)c3cccnc32)cc1F [Example 213, 5-chloro-2-fluoro-4-(3-(2-fluorophenyl)-1H-pyrrolo[2,3-b]pyridin-1-yl)-N-(methylsulfonyl)benzamide]
3 | 340 nM | CS(=O)(=O)NC(=O)c1cc(Cl)c(-n2cc(-c3cccc(F)c3)c3cccnc32)cc1F [Example 214, 5-chloro-2-fluoro-4-(3-(3-fluorophenyl)-1H-pyrrolo[2,3-b]pyridin-1-yl)-N-(methylsulfonyl)benzamide]
4 | 210 nM | Cc1cccc(-c2cn(-c3cc(F)c(C(=O)NS(C)(=O)=O)cc3Cl)c3ncccc23)c1 [Example 215, 5-chloro-2-fluoro-N-(methylsulfonyl)-4-(3-(m-tolyl)-1H-pyrrolo[2,3-b]pyridin-1-yl)benzamide]
5 | 370 nM | CS(=O)(=O)NC(=O)c1cc(Cl)c(-n2cc(-c3ccccc3C(F)(F)F)c3cccnc32)cc1F [Example 216, 5-chloro-2-fluoro-N-(methylsulfonyl)-4-(3-(2-(trifluoromethyl)phenyl)-1H-pyrrolo[2,3-b]pyridin-1-yl)benzamide]
6 | 530 nM | CS(=O)(=O)NC(=O)c1cc(Cl)c(-n2cc(-c3cccc(C(F)(F)F)c3)c3cccnc32)cc1F [Example 217, 5-chloro-2-fluoro-N-(methylsulfonyl)-4-(3-(3-(trifluoromethyl)phenyl)-1H-pyrrolo[2,3-b]pyridin-1-yl)benzamide]
7 | 290 nM | CS(=O)(=O)NC(=O)c1cc(Cl)c(-n2cc(-c3ccc(C(F)(F)F)cc3)c3cccnc32)cc1F [Example 218, 5-chloro-2-fluoro-N-(methylsulfonyl)-4-(3-(4-(trifluoromethyl)phenyl)-1H-pyrrolo[2,3-b]pyridin-1-yl)benzamide]
8 | 300 nM | CS(=O)(=O)NC(=O)c1cc(Cl)c(-n2cc(-c3cc(Cl)ccc3F)c3cccnc32)cc1F [Example 219, 5-chloro-4-(3-(5-chloro-2-fluorophenyl)-1H-pyrrolo[2,3-b]pyridin-1-yl)-2-fluoro-N-(methylsulfonyl)benzamide]
9 | 540 nM | CS(=O)(=O)NC(=O)c1cc(Cl)c(-n2cc(-c3cc(F)cc(Cl)c3)c3cccnc32)cc1F [Example 220, 5-chloro-4-(3-(3-chloro-5-fluorophenyl)-1H-pyrrolo[2,3-b]pyridin-1-yl)-2-fluoro-N-(methylsulfonyl)benzamide]
10 | 970 nM | CS(=O)(=O)NC(=O)c1cc(Cl)c(-n2cc(-c3cccc(Cl)c3)c3cccnc32)cc1F [Example 221, 5-chloro-4-(3-(3-chlorophenyl)-1H-pyrrolo[2,3-b]pyridin-1-yl)-2-fluoro-N-(methylsulfonyl)benzamide]
11 | 410 nM | CS(=O)(=O)NC(=O)c1cc(Cl)c(-n2cc(-c3cccc(Cl)c3F)c3cccnc32)cc1F [Example 222, 5-chloro-4-(3-(3-chloro-2-fluorophenyl)-1H-pyrrolo[2,3-b]pyridin-1-yl)-2-fluoro-N-(methylsulfonyl)benzamide]
12 | 230 nM | CS(=O)(=O)NC(=O)c1cc(Cl)c(-n2cc(-c3ccc(Cl)c(F)c3)c3cccnc32)cc1F [Example 223, 5-chloro-4-(3-(4-chloro-3-fluorophenyl)-1H-pyrrolo[2,3-b]pyridin-1-yl)-2-fluoro-N-(methylsulfonyl)benzamide]
13 | 280 nM | CS(=O)(=O)NC(=O)c1cc(Cl)c(-n2cc(-c3ccc(Cl)cc3)c3cccnc32)cc1F [Example 224, 5-chloro-4-(3-(4-chlorophenyl)-1H-pyrrolo[2,3-b]pyridin-1-yl)-2-fluoro-N-(methylsulfonyl)benzamide]
14 | 460 nM | CS(=O)(=O)NC(=O)c1cc(Cl)c(-n2cc(-c3ccccc3Cl)c3cccnc32)cc1F [Example 225, 5-chloro-4-(3-(2-chlorophenyl)-1H-pyrrolo[2,3-b]pyridin-1-yl)-2-fluoro-N-(methylsulfonyl)benzamide]
15 | 400 nM | CS(=O)(=O)NC(=O)c1cc(Cl)c(-n2cc(-c3ccc(F)cc3)c3cccnc32)cc1F [Example 226, 5-chloro-2-fluoro-4-(3-(4-fluorophenyl)-1H-pyrrolo[2,3-b]pyridin-1-yl)-N-(methylsulfonyl)benzamide]
16 | 180 nM | CS(=O)(=O)NC(=O)c1cc(Cl)c(-n2cc(-c3ccc(F)cc3F)c3cccnc32)cc1F [Example 229, 5-chloro-4-(3-(2,4-difluorophenyl)-1H-pyrrolo[2,3-b]pyridin-1-yl)-2-fluoro-N-(methylsulfonyl)benzamide]
17 | 144 nM | CS(=O)(=O)NC(=O)c1cc(Cl)c(-n2nc(Cl)c3cc(-c4ccccc4)ccc32)cc1F [Example 230, 5-chloro-4-(3-chloro-5-phenyl-1H-indazol-1-yl)-2-fluoro-N-(methylsulfonyl)benzamide]
18 | 3000 to 10000 nM | CS(=O)(=O)NC(=O)c1cc(Cl)c(-n2nc(Cl)c3cc(-c4cccnc4)ccc32)cc1F [Example 231, 5-chloro-4-(3-chloro-5-(pyridin-3-yl)-1H-indazol-1-yl)-2-fluoro-N-(methylsulfonyl)benzamide]

Row | IC50 | Compound
19 | 1000 to 3000 nM | CS(=O)(=O)NC(=O)c1cc(Cl)c(-n2nc(Cl)c3cc(-c4ccncc4)ccc32)cc1F [Example 232, 5-chloro-4-(3-chloro-5-(pyridin-4-yl)-1H-indazol-1-yl)-2-fluoro-N-(methylsulfonyl)benzamide]
20 | 68 nM | Cc1cccc(-c2ccc3c(c2)c(Cl)nn3-c2cc(F)c(C(=O)NS(C)(=O)=O)cc2Cl)c1 [Example 233, 5-chloro-4-(3-chloro-5-(m-tolyl)-1H-indazol-1-yl)-2-fluoro-N-(methylsulfonyl)benzamide]
21 | 111 nM | CS(=O)(=O)NC(=O)c1cc(Cl)c(-n2nc(Cl)c3cc(-c4ccccc4F)ccc32)cc1F [Example 234, 5-chloro-4-(3-chloro-5-(2-fluorophenyl)-1H-indazol-1-yl)-2-fluoro-N-(methylsulfonyl)benzamide]
22 | 89 nM | CS(=O)(=O)NC(=O)c1cc(Cl)c(-n2nc(Cl)c3cc(-c4cccc(F)c4)ccc32)cc1F [Example 235, 5-chloro-4-(3-chloro-5-(3-fluorophenyl)-1H-indazol-1-yl)-2-fluoro-N-(methylsulfonyl)benzamide]
23 | 71 nM | CS(=O)(=O)NC(=O)c1cc(Cl)c(-n2nc(Cl)c3cc(-c4ccc(F)cc4)ccc32)cc1F [Example 236, 5-chloro-4-(3-chloro-5-(4-fluorophenyl)-1H-indazol-1-yl)-2-fluoro-N-(methylsulfonyl)benzamide]
24 | > 10000 nM | CS(=O)(=O)NC(=O)c1cc(Cl)c(-n2nc(Cl)c3cc(-c4ccccc4C#N)ccc32)cc1F [Example 237, 5-chloro-4-(3-chloro-5-(2-cyanophenyl)-1H-indazol-1-yl)-2-fluoro-N-(methylsulfonyl)benzamide]
25 | 341 nM | CS(=O)(=O)NC(=O)c1cc(Cl)c(-n2nc(Cl)c3cc(-c4cc(C#N)ccc4F)ccc32)cc1F [Example 238, 5-chloro-4-(3-chloro-5-(5-cyano-2-fluorophenyl)-1H-indazol-1-yl)-2-fluoro-N-(methylsulfonyl)benzamide]
26 | 283 nM | CS(=O)(=O)NC(=O)c1cc(Cl)c(-n2nc(Cl)c3cc(-c4ccc(F)c(C#N)c4)ccc32)cc1F [Example 239, 5-chloro-4-(3-chloro-5-(3-cyano-4-fluorophenyl)-1H-indazol-1-yl)-2-fluoro-N-(methylsulfonyl)benzamide]
27 | 752 nM | CS(=O)(=O)NC(=O)c1cc(Cl)c(-n2nc(Cl)c3cc(-c4ccc(C#N)cc4)ccc32)cc1F [Example 240, 5-chloro-4-(3-chloro-5-(4-cyanophenyl)-1H-indazol-1-yl)-2-fluoro-N-(methylsulfonyl)benzamide]
28 | > 10000 nM | CS(=O)(=O)NC(=O)c1cc(Cl)c(-n2nc(Cl)c3cc(-c4cncnc4)ccc32)cc1F [Example 241, 5-chloro-4-(3-chloro-5-(pyrimidin-5-yl)-1H-indazol-1-yl)-2-fluoro-N-(methylsulfonyl)benzamide]
29 | 809 nM | CS(=O)(=O)NC(=O)c1cc(Cl)c(-n2nc(Cl)c3cc(-c4cncc(Cl)c4)ccc32)cc1F [Example 242, 5-chloro-4-(3-chloro-5-(5-chloropyridin-3-yl)-1H-indazol-1-yl)-2-fluoro-N-(methylsulfonyl)benzamide]
30 | 175 nM | CS(=O)(=O)NC(=O)c1cc(Cl)c(-n2nc(Cl)c3cc(-c4ccc(F)cc4F)ccc32)cc1F [Example 243, 5-chloro-4-(3-chloro-5-(2,4-difluorophenyl)-1H-indazol-1-yl)-2-fluoro-N-(methylsulfonyl)benzamide]
31 | 2320 nM | CS(=O)(=O)NC(=O)c1cc(Cl)c(-n2nc(Cl)c3cc(-c4cccnc4F)ccc32)cc1F [Example 244, 5-chloro-4-(3-chloro-5-(2-fluoropyridin-3-yl)-1H-indazol-1-yl)-2-fluoro-N-(methylsulfonyl)benzamide]
32 | 1670 nM | CS(=O)(=O)NC(=O)c1cc(Cl)c(-n2nc(Cl)c3cc(-c4ccc(F)nc4)ccc32)cc1F [Example 245, 5-chloro-4-(3-chloro-5-(6-fluoropyridin-3-yl)-1H-indazol-1-yl)-2-fluoro-N-(methylsulfonyl)benzamide]
33 | 1050 nM | CS(=O)(=O)NC(=O)c1cc(Cl)c(-n2nc(Cl)c3cc(-c4ccc(F)nc4F)ccc32)cc1F [Example 246, 5-chloro-4-(3-chloro-5-(2,6-difluoropyridin-3-yl)-1H-indazol-1-yl)-2-fluoro-N-(methylsulfonyl)benzamide]
34 | 304 nM | CS(=O)(=O)NC(=O)c1cc(Cl)c(-n2nc(Cl)c3cc(-c4ccc(Cl)cc4F)ccc32)cc1F [Example 247, 5-chloro-4-(3-chloro-5-(4-chloro-2-fluorophenyl)-1H-indazol-1-yl)-2-fluoro-N-(methylsulfonyl)benzamide]
35 | 88 nM | COc1ccc(-c2ccc3c(c2)c(Cl)nn3-c2cc(F)c(C(=O)NS(C)(=O)=O)cc2Cl)cc1 [Example 248, 5-chloro-4-(3-chloro-5-(4-methoxyphenyl)-1H-indazol-1-yl)-2-fluoro-N-(methylsulfonyl)benzamide]
